Source: patent US20200061062A1, “INHIBITORS OF HUMAN PHOSPHATIDYLINOSITOL 3-KINASE DELTA” (ICOS Corporation, priority 2000, published 2020)
Values joined by “and” are separate entries in the source; they are usually repeats but may differ in a detail not shown here. Identical values can stand only once. Like-named read-outs stand apart in the source and are kept apart here.

What was measured:
human neutrophils [1] = assay: Elastase exocytosis from neutrophils (fMLP-induced); type: cell-based; conditions: neutrophil (PMN) elastase release
How it was run: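 Human blood neutrophils (Ficoll-Hypaque) treated with compound or DMSO, then stimulated 90 min at 37 °C with 1 μM fMLP plus 0.01 mg/mL cytochalasin B, 1.0 μM NaN3 and 5 μg/mL L-methionine. Supernatant elastase read at 410 nm over 2 h on MeO-suc-AAPV-pNA, normalized to uninhibited; EC50 in μM.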

PI3Kα [2] = target: T1, PI3Kα (Homo sapiens, UniProt P42336); assay: Biochemical assay using 200 μM ATP, Alpha
T1 construct: His tag (pFastbac HTb vector) (N); FLAG; made in house; host or cells: Sf21 insect cells (baculovirus)
T1 sequence (P42336 whole entry): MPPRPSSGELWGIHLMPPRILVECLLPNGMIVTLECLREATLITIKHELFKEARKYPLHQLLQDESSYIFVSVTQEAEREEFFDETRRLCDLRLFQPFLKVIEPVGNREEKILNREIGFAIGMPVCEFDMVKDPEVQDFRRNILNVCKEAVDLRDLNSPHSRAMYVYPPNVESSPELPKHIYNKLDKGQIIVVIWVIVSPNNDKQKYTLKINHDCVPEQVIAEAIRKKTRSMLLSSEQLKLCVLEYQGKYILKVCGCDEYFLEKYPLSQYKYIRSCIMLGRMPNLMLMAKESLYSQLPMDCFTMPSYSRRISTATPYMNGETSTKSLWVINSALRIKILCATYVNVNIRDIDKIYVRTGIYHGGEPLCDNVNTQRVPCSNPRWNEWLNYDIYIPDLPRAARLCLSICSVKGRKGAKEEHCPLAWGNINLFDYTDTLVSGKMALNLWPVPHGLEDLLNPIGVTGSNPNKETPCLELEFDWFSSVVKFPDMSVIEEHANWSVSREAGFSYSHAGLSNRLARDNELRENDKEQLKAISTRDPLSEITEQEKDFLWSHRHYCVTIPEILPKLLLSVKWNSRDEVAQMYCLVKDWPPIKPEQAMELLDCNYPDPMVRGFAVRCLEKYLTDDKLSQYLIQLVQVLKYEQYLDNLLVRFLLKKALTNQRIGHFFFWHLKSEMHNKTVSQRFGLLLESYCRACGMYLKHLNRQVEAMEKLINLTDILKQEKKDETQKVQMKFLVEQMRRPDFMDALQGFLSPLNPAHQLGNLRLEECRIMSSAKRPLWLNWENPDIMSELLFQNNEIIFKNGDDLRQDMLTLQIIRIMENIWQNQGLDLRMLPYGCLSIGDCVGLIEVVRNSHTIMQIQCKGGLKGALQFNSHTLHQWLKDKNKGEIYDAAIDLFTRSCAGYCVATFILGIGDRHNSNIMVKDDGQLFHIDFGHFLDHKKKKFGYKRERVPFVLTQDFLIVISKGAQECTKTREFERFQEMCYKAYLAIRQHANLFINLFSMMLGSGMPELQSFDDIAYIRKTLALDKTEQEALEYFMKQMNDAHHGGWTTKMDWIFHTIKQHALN
T1 sequence (P27986 whole entry partner): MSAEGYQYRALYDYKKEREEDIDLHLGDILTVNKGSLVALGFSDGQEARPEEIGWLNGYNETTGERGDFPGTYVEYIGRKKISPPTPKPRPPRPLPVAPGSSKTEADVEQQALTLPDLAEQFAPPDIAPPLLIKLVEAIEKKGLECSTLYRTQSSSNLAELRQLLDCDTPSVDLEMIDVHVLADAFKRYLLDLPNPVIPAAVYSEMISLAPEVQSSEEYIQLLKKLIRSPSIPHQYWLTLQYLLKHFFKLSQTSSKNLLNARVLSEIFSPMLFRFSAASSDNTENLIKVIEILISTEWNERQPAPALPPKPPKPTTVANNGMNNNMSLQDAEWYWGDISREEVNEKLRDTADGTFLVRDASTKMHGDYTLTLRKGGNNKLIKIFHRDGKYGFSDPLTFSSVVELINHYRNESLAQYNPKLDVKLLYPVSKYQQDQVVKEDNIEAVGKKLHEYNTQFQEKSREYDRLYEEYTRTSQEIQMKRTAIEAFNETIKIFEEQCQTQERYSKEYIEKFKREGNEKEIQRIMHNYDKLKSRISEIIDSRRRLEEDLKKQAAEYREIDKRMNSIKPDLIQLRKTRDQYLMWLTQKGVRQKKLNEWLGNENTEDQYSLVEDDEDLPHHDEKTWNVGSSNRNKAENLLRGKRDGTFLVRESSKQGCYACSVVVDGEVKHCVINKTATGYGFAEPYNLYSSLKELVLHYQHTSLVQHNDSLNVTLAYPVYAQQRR
Protocol: (§3) PI3Kδ catalyzes a phosphotransfer from γ-[^32P]ATP to PIP2/PS liposomes at the D3′ position of the PIP2 lipid inositol ring. This reaction is MgCl2 dependent and is quenched in high molarity potassium phosphate buffer pH 8.0 containing 30 mM EDTA. […] The reaction products (and all unlabelled products) are transferred to a 96-well, prewetted PVDF filter plate, filtered, and washed in high molarity potassium phosphate. Scintillant is added to the dried wells and the incorporated radioactivity is quantitated.
(§4) This dilution established a final concentration of 200 μM ATP in the reaction volume. The reaction was stopped with 150 μL quench buffer (1.0 M potassium phosphate pH 8.0, 30 mM EDTA). A portion of the quenched solution (180 μL) was then transferred to a PVDF filter plate (Millipore # MAIP NOB prewetted with sequential 200 μL washes of 100% methanol, water, and finally 1.0 M potassium phosphate pH 8.0 wash buffer).
(§5) The PVDF filter plate was aspirated under moderate vacuum (2-5 mm Hg), washed with 5×200 μL of wash buffer, and then dried by aspiration. The filter was subsequently blotted, allowed to air dry completely, and inserted into a Wallac counting cassette with 50 μL of Ecoscint scintillation cocktail added per well.
(§6) Subsequent selectivity assays were done similarly using the same 3× substrate stocks except they contained 0.05 mCi/mL γ[^32P]ATP and 3 mM PIP2. Subsequent selectivity assays also used the same 3× enzyme stocks, except they now contained 3 nM of any given PI3K isoform.
(§7) For all selectivity assays, the test compounds were weighed out and dissolved into 10-50 mM stocks in 100% DMSO (depending on their respective solubilities) and stored at −20° C. […] From these dilutions, 20 μL was added into the assay wells alongside water blanks used for the enzyme (positive) control and the no enzyme (background) control.
(§8) This selectivity protocol is identical to that described above, except the 3× stock ATP concentration was 600 μM.

human neutrophils [3] = assay: fMLP-induced human neutrophil migration; type: cell-based; conditions: neutrophil (PMN) migration, read-out: Human PMN Migration (EC50)
Protocol: Neutrophils have the intrinsic capacity to migrate through tissues, and are one of the first cell types to arrive at the sites of inflammation or tissue injury. The effect of D-000 on neutrophil migration towards a concentration gradient of fMLP was measured. The day before the migration assays were performed, 6-well plates were coated with recombinant ICAM-1/Fc fusion protein (Van der Vieren et al., Immunity, 3:683-690 (1995)) (25 μg/mL in bicarbonate buffer, pH 9.3) and left overnight at 4° C. After washing, 1% agarose solution, in RPMI-1640 with 0.5% bovine serum albumin (BSA), was added to wells with or without an inhibitor, and plates were placed into a refrigerator before punching holes in the gelled agarose to create plaques (1 central hole surrounded by 6 peripheral ones per well).
Human neutrophils were obtained as described above, and resuspended in RPMI medium supplemented with 0.5% BSA at 5×10^6 cells/mL. After combining equal volumes of neutrophil suspension and medium (either with DMSO or a serial dilution of the test compound in DMSO), neutrophils were aliquoted into the peripheral holes, while the central hole received fMLP (5 μM). Plates were incubated at 37° C. in the presence of 5% CO2 for 4 hr, followed by termination of migration by the addition of 1% glutaraldehyde solution in D-PBS. After removing the agarose layer, wells were washed with distilled water and dried.
Analysis of neutrophil migration was conducted on a Nikon DIAPHOT® inverted microscope (1× objective) video workstation using the NIH 1.61 program. Using Microsoft Excel and Table Curve 4 (SSPS Inc., Chicago Ill.) programs, a migration index was obtained for each of the studied conditions. Migration index was defined as the area under a curve representing number of migrated neutrophils versus the net distance of migration per cell.
Using the methods described in Examples 3-5, above, compounds of the invention were tested for inhibitory activity and potency in assays of stimulated B and T cell proliferation, neutrophil (PMN) migration, and neutrophil (PMN) elastase release. In Table 4, the values shown are effective concentrations of the compound (EC50; μM). Where no value is given, no assay was performed.

PI3Kβ [4] = target: T2, PI3Kβ (Homo sapiens, UniProt P42338); assay: Biochemical assay using 200 μM ATP, Beta
T2 construct: His tag (pFastbac HTa vector) (N); FLAG (N); made in house; host or cells: Sf21 insect cells (baculovirus)
T2 sequence (P42338 whole entry): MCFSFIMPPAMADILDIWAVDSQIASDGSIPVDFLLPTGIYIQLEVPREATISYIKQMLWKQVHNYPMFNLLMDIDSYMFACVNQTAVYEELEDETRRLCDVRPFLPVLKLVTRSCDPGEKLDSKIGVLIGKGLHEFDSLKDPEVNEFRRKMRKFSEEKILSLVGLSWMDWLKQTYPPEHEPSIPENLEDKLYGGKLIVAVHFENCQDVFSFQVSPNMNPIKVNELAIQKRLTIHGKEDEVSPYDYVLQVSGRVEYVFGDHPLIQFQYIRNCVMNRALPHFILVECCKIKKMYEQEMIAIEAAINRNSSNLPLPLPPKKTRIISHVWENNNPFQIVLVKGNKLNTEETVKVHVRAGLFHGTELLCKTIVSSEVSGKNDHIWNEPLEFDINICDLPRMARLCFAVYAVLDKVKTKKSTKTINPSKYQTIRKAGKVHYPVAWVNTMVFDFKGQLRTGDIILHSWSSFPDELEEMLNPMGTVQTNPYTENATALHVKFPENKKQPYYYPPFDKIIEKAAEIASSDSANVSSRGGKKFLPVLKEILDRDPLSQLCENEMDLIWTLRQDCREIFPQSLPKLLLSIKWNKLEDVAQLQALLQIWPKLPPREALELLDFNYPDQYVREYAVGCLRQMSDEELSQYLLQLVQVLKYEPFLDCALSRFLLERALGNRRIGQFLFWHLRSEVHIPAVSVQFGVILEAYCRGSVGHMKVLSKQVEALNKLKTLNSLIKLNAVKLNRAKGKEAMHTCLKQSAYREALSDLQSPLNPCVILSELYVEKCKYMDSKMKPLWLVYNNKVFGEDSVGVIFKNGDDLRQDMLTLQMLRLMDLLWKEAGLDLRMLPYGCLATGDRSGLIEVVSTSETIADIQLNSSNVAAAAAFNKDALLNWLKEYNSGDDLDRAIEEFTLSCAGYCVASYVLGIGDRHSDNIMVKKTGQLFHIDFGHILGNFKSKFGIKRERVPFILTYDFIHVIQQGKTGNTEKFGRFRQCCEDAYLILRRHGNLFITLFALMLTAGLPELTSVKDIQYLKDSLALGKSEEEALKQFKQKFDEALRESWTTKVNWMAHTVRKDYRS
T2 sequence (P27986 whole entry partner): as the sequence (P27986 whole entry partner) above
Protocol: as §3, §4, §5, §6, §7, §8

PI3Kδ [5] = target: T3, PI3Kδ (Homo sapiens, UniProt O00329, S253N); assay: Biochemical assay using 200 μM ATP, Delta;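 also: radiometric filter-binding assay: PI3Kδ transfers ³²P from γ-[³²P]ATP onto PIP2/PS liposomes, counted by scintillation, enzyme-only wells as positive control, no-enzyme wells as background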
T3 sequence (O00329 whole entry S253N): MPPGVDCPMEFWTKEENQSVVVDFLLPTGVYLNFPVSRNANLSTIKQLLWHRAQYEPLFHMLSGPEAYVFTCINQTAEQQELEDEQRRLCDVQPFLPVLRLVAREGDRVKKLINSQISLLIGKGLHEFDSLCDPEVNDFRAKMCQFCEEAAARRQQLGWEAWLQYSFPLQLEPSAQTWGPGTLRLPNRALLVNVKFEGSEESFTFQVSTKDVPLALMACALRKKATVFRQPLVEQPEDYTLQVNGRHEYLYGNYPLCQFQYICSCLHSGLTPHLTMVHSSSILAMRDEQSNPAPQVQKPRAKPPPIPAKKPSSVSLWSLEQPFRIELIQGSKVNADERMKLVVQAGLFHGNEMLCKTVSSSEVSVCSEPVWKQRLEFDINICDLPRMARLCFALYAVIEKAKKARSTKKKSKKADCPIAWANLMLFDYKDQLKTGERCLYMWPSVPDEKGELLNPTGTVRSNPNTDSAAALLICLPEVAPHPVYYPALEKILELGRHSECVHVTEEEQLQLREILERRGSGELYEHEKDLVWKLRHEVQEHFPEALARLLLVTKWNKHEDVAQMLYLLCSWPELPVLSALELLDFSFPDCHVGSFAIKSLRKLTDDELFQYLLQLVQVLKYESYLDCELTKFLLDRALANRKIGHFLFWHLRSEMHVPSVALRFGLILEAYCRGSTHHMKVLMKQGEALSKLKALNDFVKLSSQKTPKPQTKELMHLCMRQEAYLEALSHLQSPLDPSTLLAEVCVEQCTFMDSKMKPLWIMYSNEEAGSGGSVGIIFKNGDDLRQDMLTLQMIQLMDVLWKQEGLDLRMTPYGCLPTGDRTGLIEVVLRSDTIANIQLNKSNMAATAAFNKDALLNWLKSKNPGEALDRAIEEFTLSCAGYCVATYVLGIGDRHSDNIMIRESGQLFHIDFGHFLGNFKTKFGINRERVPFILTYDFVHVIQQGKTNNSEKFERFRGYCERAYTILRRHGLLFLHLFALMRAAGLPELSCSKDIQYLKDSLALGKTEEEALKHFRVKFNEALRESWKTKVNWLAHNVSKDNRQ
T3 sequence (P27986 whole entry partner): as the sequence (P27986 whole entry partner) above
Protocol: as §3, §4, §5, §6, §7, §8

PI3Kβ [6] = target: T2, PI3Kβ; assay: Biochemical assay of PI3K potency and selectivity using 20 μM ATP, Beta; conditions: 20 μM ATP; for Beta/Delta Ratio: ratio of IC50 values, > = hypothetical ratio with 100 μM substituted for the missing IC50; for IC50: read-out: Beta IC50
How it was run: (§1)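 Radioactive phosphate transfer from γ-[32P]ATP onto PIP2/PS liposomes was measured in 20 mM HEPES, pH 7.4, at 20 μM ATP. The 3× substrate stock contained […] and 6 μM PIP2/PS.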

[7] = system: Murine splenocytes (Balb/c); assay: B cell proliferation in response to cell surface IgM stimulation; type: cell-based; conditions: Mus musculus, Splenocyte; stimulated B cell proliferation; read-out: Mouse BCR Stim (EC50)
How it was run: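 Balb/c splenocytes (2×10^5/well, 10% FBS/RPMI) preincubated 30-60 min with inhibitor, then stimulated with goat F(ab′)2 anti-mouse IgM μ-chain at 25 μg/mL final. Cultured 3 days at 37° C., [^3H]-thymidine pulsed for final 4 h; incorporation counted as CPM. Values are EC50 (μM).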

PI3Kα [8] = target: T1, PI3Kα; assay: Biochemical assay of PI3K potency and selectivity using 20 μM ATP, Alpha; conditions: for Alpha/Delta Ratio: ratio of IC50 values, > = hypothetical ratio with 100 μM substituted for the missing IC50; for remaining activity at 100 µM: read-out: percent activity remaining at 100 μM, 20 μM ATP, 100 μM compound did not inhibit by at least 50%
How it was run: as §1

PI3Kδ [9] = target: T3, PI3Kδ; assay: Biochemical assay of PI3K potency and selectivity using 20 μM ATP, Delta; parameters: His tag (pFastbac HTb vector) (N); FLAG; made in house; host or cells: Sf21 insect cells (baculovirus)
How it was run: as §1

PI3Kγ [10] = target: T4, PI3Kγ (Homo sapiens, UniProt P48736); assay: Biochemical assay using 200 μM ATP, Gamma
T4 construct: His tag (pFastbac HTb vector) (N); FLAG (N); made in house; host or cells: Sf21 insect cells (baculovirus)
T4 sequence (P48736 whole entry): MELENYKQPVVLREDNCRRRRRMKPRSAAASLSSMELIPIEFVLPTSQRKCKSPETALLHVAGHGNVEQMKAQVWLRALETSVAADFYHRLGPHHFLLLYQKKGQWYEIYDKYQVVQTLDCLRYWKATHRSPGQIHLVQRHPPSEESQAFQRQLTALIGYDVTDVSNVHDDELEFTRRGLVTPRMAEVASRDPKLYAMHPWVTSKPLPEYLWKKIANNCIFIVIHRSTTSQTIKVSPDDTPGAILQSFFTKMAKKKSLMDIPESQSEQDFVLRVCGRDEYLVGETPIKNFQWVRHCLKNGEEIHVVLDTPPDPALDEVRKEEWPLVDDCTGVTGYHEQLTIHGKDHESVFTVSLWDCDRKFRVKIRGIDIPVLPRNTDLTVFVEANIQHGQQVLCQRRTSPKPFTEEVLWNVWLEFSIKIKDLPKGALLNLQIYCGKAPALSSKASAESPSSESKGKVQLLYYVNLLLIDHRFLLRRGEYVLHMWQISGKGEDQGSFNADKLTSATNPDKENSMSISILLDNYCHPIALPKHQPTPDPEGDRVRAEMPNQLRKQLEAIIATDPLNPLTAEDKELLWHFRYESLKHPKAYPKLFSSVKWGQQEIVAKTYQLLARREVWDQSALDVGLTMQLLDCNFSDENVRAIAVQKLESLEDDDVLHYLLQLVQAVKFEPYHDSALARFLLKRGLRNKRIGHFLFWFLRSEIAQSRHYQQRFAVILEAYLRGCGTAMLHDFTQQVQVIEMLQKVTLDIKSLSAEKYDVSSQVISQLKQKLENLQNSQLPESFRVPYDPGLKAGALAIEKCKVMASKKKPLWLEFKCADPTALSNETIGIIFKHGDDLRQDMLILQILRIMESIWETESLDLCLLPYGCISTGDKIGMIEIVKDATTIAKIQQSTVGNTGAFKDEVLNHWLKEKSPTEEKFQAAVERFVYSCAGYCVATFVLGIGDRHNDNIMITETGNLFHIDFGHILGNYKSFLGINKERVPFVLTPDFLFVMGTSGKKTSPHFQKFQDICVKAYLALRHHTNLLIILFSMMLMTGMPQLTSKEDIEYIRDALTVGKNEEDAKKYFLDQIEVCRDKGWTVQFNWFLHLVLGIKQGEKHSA
Protocol: as §3, §4, §5, §6, §7, §8

osteoclasts = assay: Osteoclast function, pit depths on dentine slices; type: cell-based, mouse; conditions: inhibitor 100 nM + osteopontin (OPN) 25 μg/mL, 72 hr; two experiments; OPN alone 10 ± 0.5 and 9 ± 0.4
Protocol: To analyze the effect of the PI3Kδ inhibitor D-000 on osteoclasts, mouse bone marrow cells were isolated and differentiated them to osteoclasts by treating the cells with Macrophage Colony Stimulating Factor^−1 (mCSF^−1) and Osteoprotegerin Ligand (OPGL) in serum-containing medium (αMEM with 10% heat-inactivated FBS; Sigma) for 3 days. On day four, when the osteoclasts had developed, the medium was removed and cells were harvested. The osteoclasts were plated on dentine slices at 10^5 cells/well in growth medium, i.e., αMEM containing 1% serum and 2% BSA with […] and 10 ng/mL mCSF-1. After 3 hr, the medium was changed to 1% serum and 1% BSA, with or without osteopontin (25 μg/mL) and the PI3K inhibitors (100 nM). The medium was changed every 24 hours with fresh osteopontin and the inhibitors. At 72 hr, the medium was removed, and the dentine surfaces were washed with water to remove cell debris and stained with acid hematoxylin. Excess stain was washed and the pit depths were quantitated using confocal microscopy.

T cell proliferation = assay: Stimulated T cell proliferation (Mouse TCE Stim, Table 4); type: cell-based; conditions: read-out: Mouse TCE Stim (EC50)
rats = assay: Six-day air pouch model, TNF challenge, leukocyte counts and neutrophil elastase in lavage fluid; type: in vivo, rat; conditions: 100 mg/kg orally, TNF 2.5 ng
Protocol: The six-day air pouch model is an in vivo inflammation model that histologically resembles a joint synovium. A lining of organized mononuclear cells and fibroblasts develops that closely resembles a synovial cavity. The model represents an “acute” model of a chronic disease (e.g., rheumatoid arthritis). This model allows for the in vivo evaluation of agents to block cellular influx into the air pouch under the influence of an inflammatory stimulus.
(§2) The test was performed as follows: on day zero, groups of rats were shaved and 10 ml of air was injected subcutaneously on the back of each, forming a pouch. On day three, 10 ml of air was reinjected. […] Six hours following dosing, the air pouches of both groups received 2.5 ng of TNF. Twelve hours following dosing, the pouches were washed with saline, and the resulting lavage fluid was analyzed for leukocyte counts and neutrophil elastase activity. In addition, blood was drawn to determine the levels of D-030 in circulation. […] Reductions in specific leukocyte counts were as follows: neutrophils (90%), eosinophils (66%), and lymphocytes (70%).

[11] = Levels of D-030 in circulation (air pouch test); type: in vivo; conditions: rat, blood, po; rats, 100 mg/kg in PEG 400 orally, twelve hours following dosing; read-out: Average compound in circulation
Protocol: as §2

mouse = assay: Mouse air pouch, TNF-α challenge, elastase exocytosis in lavage; type: in vivo; conditions: 32 mg/kg in LABRAFIL one hour before and two hours after TNF-α, FIG. 9
PI3Kγ [12] = target: T4, PI3Kγ; assay: Biochemical assay of PI3K potency and selectivity using 20 μM ATP, Gamma
From the text: Recombinant baculoviruses containing the above clones were generated using manufacturer's recommended protocol (Life Technologies). Baculoviruses expressing His-tagged p110α, p110γ, or p110δ catalytic subunit and p85 subunit were coinfected into Sf21 insect cells. To enrich the heterodimeric enzyme complex, an excess amount of baculovirus expressing p85 subunit was infected, and the His-tagged p110 catalytic subunit complexed with p85 was purified on nickel affinity column. […] In an alternate approach, p101 can be cloned into baculovirus, to permit coexpression with its preferred binding partner p110γ. […]

basophils = assay: Basophil histamine release assay; type: cell-based, human
Protocol: Assessment of the effect of a compound of the invention on basophil function was tested using a conventional histamine release assay, generally in accordance with the method described in Miura et al., J Immunol, 162:4198-206 (1999). Briefly, enriched basophils were preincubated with test compounds at several concentrations from 0.1 nM to 1,000 nM, for 10 min at 37° C. Then, polyclonal goat antihuman IgE (0.1 μg/mL) or fMLP was added, and allowed to incubate for an additional 30 min. Histamine released into the supernatant was measured using an automated fluorometric technique. Two compounds were tested, shown below.

[13] = 20 μM ATP, read-out: Delta IC50
[14] = stimulated T cell proliferation

Compound | EC50 (human neutrophils [1]) [µM] | Alpha/Delta Ratio (PI3Kα [2]) | EC50 (human neutrophils [3]) [µM] | Beta/Delta Ratio (PI3Kβ [4]) | IC50 (PI3Kδ [5]) [µM] | Beta/Delta Ratio (PI3Kβ [6]) | EC50 [7] [µM] | Alpha/Delta Ratio (PI3Kα [8]; 20 μM ATP) | IC50 (PI3Kδ [9]; [13]) [µM] | Gamma/Delta Ratio (PI3Kγ [10]) | IC50 (PI3Kγ [10]) [µM] | EC50 (T cell proliferation; [14]) [µM] | further results
O=c1c2ccccc2nc(CSc2ncnc3[nH]cnc23)n1Cc1ccccc1 [Compound D-037, 3-benzyl-2-(9H-purin-6-ylsulfanylmethyl)-3H-quinazolin-4-one] | 1.3 ± 0.4 | 64 | 2 | 33 | 3.5 | 100 | 1.2 ± 0.4 | >125 | 0.8 | 13 | 45 |  | IC50 (PI3Kβ [6]): 80 µM; remaining activity at 100 µM (PI3Kα [8]): 64%
COC[C@H]1OC(=O)c2coc3c2[C@@]1(C)C1=C(C3=O)[C@@H]2CCC(=O)[C@@]2(C)C[C@H]1OC(C)=O [Wortmannin, wortmannin] |  |  |  |  |  |  |  |  |  |  |  |  | Pit depths (osteoclast activity), Table 1 (osteoclasts): 5.7 ± 0.6 and 5 ± 0.5
COc1ccccc1-n1c(CSc2ncnc3[nH]cnc23)nc2ccccc2c1=O [Compound D-036, 3-(2-methoxyphenyl)-2-(9H-purin-6-ylsulfanylmethyl)-3H-quinazolin-4-one] | 5.5 ± 5 | 48 | 0.2 | 36 | 4.1 | 69 | 0.9 ± 0.04 | >226 |  | 18 | 72 | 4.1 | remaining activity at 100 µM (PI3Kα [8]): 63%
Cc1ccccc1-n1c(Cn2cnc3c(N)ncnc32)nc2cccc(C)c2c1=O [Compound D-030, 2-(6-Aminopurin-9-ylmethyl)-5-methyl-3-o-tolyl-3H-quinazolin-4-one] | 0.4 ± 0.5 |  | 0.2 |  |  |  | 0.1 ± 0.1 |  |  |  |  | 6 | Reduction in eosinophils count in lavage fluid (rats): 66%; Reduction in lymphocytes count in lavage fluid (rats): 70%; Reduction in neutrophils count in lavage fluid (rats): 90%; Reduction in total leukocytes in the lavage fluid compared to vehicle controls (rats): 82%; Reduction of neutrophil elastase levels versus vehicle controls (rats): 15%; concentration at 12 h [11]: 8.7 µM; Elastase activity in the air pouch lavages of TNF challenged animals (mouse): significant decrease
Cc1cccc2nc(CSc3ncnc4[nH]cnc34)n(-c3ccccc3Cl)c(=O)c12 [Compound D-026, 3-(2-Chlorophenyl)-5-methyl-2-(9H-purin-6-ylsulfanylmethyl)-3H-quinazolin-4-one] | 0.2 ± 0.2 |  | 0.3 ± 0.3 |  | 0.38 ± 0.2 |  | 0.3 ± 0.1 |  | 0.08 |  | 13 ± 10 |  | EC50 (T cell proliferation; T-cell): 3.5 µM; melting point: 227.8 to 230.1 °C (dec.); IC50 (PI3Kγ [12]): 1.7 µM; EC50 (basophils; Homo sapiens, read-out: EC50, suppression of histamine release): ~0.025 µM; Suppression of histamine release (basophils; anti-IgE, at 1,000 nM): ~100%; Effect on histamine release, basophils stimulated with fMLP (basophils; fMLP stimulus): Neither compound elicited any effect
O=c1cc(N2CCOCC2)oc2c(-c3ccccc3)cccc12 [LY294002, reference compound] |  |  |  |  | 2.1 ± 1.5 |  | 0.9 ± 0.5 |  | 0.23 |  |  |  | IC50 (PI3Kδ [9]; Example 2 assay conditions, read-out: IC50, δ isoform of PI3K (FIG. 1)): 0.3 to 1 µM; inhibition at 10 µM (basophils; Homo sapiens, at the highest concentration, 10,000 nM): ~100%; Pit depths (osteoclast activity), Table 1 (osteoclasts): 4.6 ± 0.22 and 5.8 ± 0.5
Cc1cccc2nc(Cn3cnc4c(N)ncnc43)n(-c3ccccc3C(C)C)c(=O)c12 [Compound D-029, 2-(6-Aminopurin-9-ylmethyl)-3-(2-isopropylphenyl)-5-methyl-3H-quinazolin-4-one] | 0.5 ± 0.6 | 653 | 0.3 | 101 | 0.34 ± 0.08 | 54 | 0.1 ± 0.03 | 882 | 0.06 | 37 | 13 ± 0.7 | 3.4 ± 2 | IC50 (PI3Kβ [4]): 34 ± 4 µM; IC50 (PI3Kβ [6]): 3 µM; melting point: 258 to 258.2 °C; IC50 (PI3Kα [8]; 20 μM ATP, read-out: Alpha IC50): 49 µM
